# Ends that are not written are not given here.
# Columns and labels:
# [1] = Heat stability: residual activity by MTT assay after storage at 40° C.; assay type: physicochemical; conditions: days 0-100, MTT assay, FIG. 3
# Experimental: To evaluate heat stability of the peptide 2 prepared in Example 1, the peptide 2 was dissolved in 50 mM Tris-HCl buffer (pH 8.0) to a concentration of 10 μg/ml. Recombinant TGF-β1 (Sigma) as control was produced from E. coli and dissolved in 50 mM Tris-HCl buffer (pH 8.0) at a concentration of 1 μg/ml. The prepared solutions were introduced into glass vials and kept to stand at 40° C. Afterwards, the solutions were taken on days 0, 1, 10, 25, 50, 75 and 100, and subjected to MTT assay (Scudiero, D. A., et al., Cancer Res., 48: 4827-4833 (1988)) to determine residual activities of the peptide and recombinant TGF-β1 (FIG. 3).
# C57BL/6 Mice melanocytes = test: Inhibition of melanin generation in α-MSH-treated melanocytes; assay type: cell-based; conditions: 200 μg/ml α-MSH alone (positive control), 3 days, FIG. 4
# Experimental: To evaluate reduction of melanin pigment by the peptide 2 synthesized in Example 1, C57BL/6 Mice melanocytes cultured were incubated with α-MSH (melanocyte stimulating hormone; Sigma) and then with the peptide in the determined concentrations to measure inhibition effects on melanin generation. Mice melanocytes were cultured in DMEM (Dulbecco's modified Eagle's media; Sigma) supplemented with 10% FBS (fetal bovine serum; Sigma) at 37° C. under 5% CO2 conditions. Cells were cultured in a 24-well culture plate with a density of 1×10^5 cells/well and their adhesion to the plate was observed. Then, cells were incubated with each test group for 3 days: (a) a solvent as control; (b) 200 μg/ml α-MSH as a positive control; and (c) 200 μg/ml α-MSH plus 1 μg/ml or 10 μg/ml peptide 2. The test materials were prepared in such a manner that each component was dissolved in medium solvent and diluted at an equivalent rate to the aforementioned concentration using a mixed solvent of propylene glycol:ethanol:distilled water (5:3:2). After removing culture medium by centrifugation, melanin contents in each group could be observed with naked eye. […]
# More specifically, cells were washed with PBS (phosphate buffered saline) and treated with 1 N sodium hydroxide. The resultants were analyzed to measure their absorbance values at 400 nm. […]
# tyrosinase = test: Tyrosinase activity in α-MSH-treated B16F10 cells (L-DOPA, absorbance at 405 nm); assay type: cell-based; conditions: 4 days, FIG. 6
# Experimental: For verifying effects on skin whitening of the peptide synthesized in Example 1 and TGF-β, cells were treated with α-MSH and the inhibition in melanin generation was measured. B16F10 cells (Korean Cell Line Bank) were inoculated in a density of 1×10^5 cells/well and cultured in DMEM for 3 days. After cell adhesion was observed, medium was changed with a fresh medium containing 2% serum. Cells were incubated with each test group for 4 days: (a) no treatment as negative control; (b) 200 μg/ml α-MSH as a positive control; and (c) 200 μg/ml α-MSH plus 1 μg/ml or 10 μg/ml peptide 2. […] Subsequently, cells were harvested and treated with a lysis buffer to extract total proteins. The extracted proteins were quantitated by the BCA (bicinchonic acid) method. For each experiment group, 90 μl of protein solution and 10 μl of L-DOPA (L-3,4-dihydroxyphenylalanine; Sigma) were added and reacted for 30 min at 37° C. The resultants were analyzed to measure their absorbance values at 405 nm for evaluating tyrosinase activities.
# [2] = tested on: MITF (microphthalmia-associated transcription factor); test: RT-PCR of MITF mRNA in α-MSH-treated B16F10 melanoma cells; assay type: cell-based; conditions: 200 μg/ml α-MSH plus 10 μg/ml peptide, 4 days, FIG. 8
# Experimental: (§1) To more clearly check activities of TGF-mimicking peptide on skin whitening in α-MSH-treated B16F10 melanoma cells, mRNA level of TRP1 (tyrosinase-related protein-1), TRP2 and MITF (microphthalmia-associated transcription factor) was measured using RT-PCR.
# (§2) First, B16F10 cells were plated at a 6-well plate in a density of 1×10^5 cells/well and cultured for 3 days. After cell adhesion was observed, medium was changed with a fresh medium containing 2% serum. Cells were incubated with each test group for 4 days: (a) no treatment as negative control; (b) 200 μg/ml α-MSH as a positive control; and (c) 200 μg/ml α-MSH plus 10 μg/ml peptide 2.
# (§3) Subsequently, mRNA were extracted from cells and RT-PCR was carried out using primers for TRP1, TRP2 and MITF. The primer sequence is as follows: TRP1 F-primer, 5′-[…]-3′ and TRP1 R-primer, 5′-[…]-3′; TRP2 F-primer, 5′-[…]-3′ and TRP2 R-primer, 5′-[…]-3′; and MITF F-primer, 5′-[…]-3′ and MITF R-primer, 5′-[…]-3′.
# fibronectin = test: Fibronectin production in NIH3T3 fibroblasts (Fibronectin ELISA kit); assay type: cell-based; conditions: NIH3T3, 1 μg/ml or 10 μg/ml, 72 hr, FIG. 10
# Experimental: (§4) NIH3T3 cells cultured for 48 hr were incubated with the peptide of the present invention with a concentration of 1 μg/ml or 10 μg/ml for 72 hr, respectively. The levels of procollagen and fibronectin, indicators to show the improvement in skin wrinkle, were examined. The quantification was performed using Procollagen ELISA kit (Takara, Japan) and Fibronectin ELISA kit (CHEMICON, USA).
# procollagen = test: Procollagen production in NIH3T3 fibroblasts (Procollagen ELISA kit); assay type: cell-based; conditions: NIH3T3, 1 μg/ml or 10 μg/ml, 72 hr, FIG. 9
# Experimental: as §4
# [3] = tested on: TRP1 (tyrosinase-related protein-1); test: RT-PCR of TRP1 mRNA in α-MSH-treated B16F10 melanoma cells; assay type: cell-based; conditions: 200 μg/ml α-MSH plus 10 μg/ml peptide, 4 days, FIG. 8
# Experimental: as §1, §2, §3
# B16F10 melanoma cells = test: Melanosome changes / cell morphology in α-MSH-treated B16F10 melanoma cells; assay type: cell-based; conditions: 200 μg/ml α-MSH plus 10 μg/ml peptide, 4 days, FIG. 7
# Experimental: as §2
# TRP2 = test: RT-PCR of TRP2 mRNA in α-MSH-treated B16F10 melanoma cells; assay type: cell-based; conditions: 200 μg/ml α-MSH plus 10 μg/ml peptide, 4 days, FIG. 8
# Experimental: as §1, §2, §3
substance,measurement,setting,value
"recombinant TGF-β1: Recombinant TGF-β1 (Sigma) produced from E. coli, used as control",residual activity over time (heat stability),[1]; 1 μg/ml in 50 mM Tris-HCl buffer (pH 8.0),sharply decreased with the lapse of time
"α-MSH: melanocyte stimulating hormone (Sigma), inducer of melanin generation, positive control (SYSMEHFRWGKPV; ends and bridges not checked; UniProt P01189 138-150, looked up) [reference compound]",melanin content,C57BL/6 Mice melanocytes,strikingly increased
same,tyrosinase activity,tyrosinase; 200 μg/ml α-MSH only,highly elevated level
NH2-Gly-Arg-Gly-Asp-Tyr-Ile-Trp-Ser-Leu-Asp-Thr-Gln-OH (H-GRGDYIWSLDTQ-OH) [peptide 2],mRNA level of MITF,[2],inhibit
same,level of fibronectin,fibronectin,increase
same,production of procollagen,procollagen,remarkably promote
same,mRNA level of TRP1,[3],inhibit
same,α-MSH-induced melanosomes,B16F10 melanoma cells,eliminated
same,residual activity over time (heat stability),[1]; 10 μg/ml in 50 mM Tris-HCl buffer (pH 8.0),not to be decreased over time
same,mRNA level of TRP2,TRP2,inhibit
same,reduction of tyrosinase activity,"tyrosinase; 200 μg/ml α-MSH plus 1 μg/ml or 10 μg/ml peptide, versus α-MSH only",about 30%
